This experiment has as its target SARS-CoV-2 main protease (M^pro; NSP5; 3CL M^pro) (Severe acute respiratory syndrome coronavirus 2, UniProt P0DTD1). Kind of experiment: biochemical. The conditions noted are these: read-out: % Residual activity at 20 µM.

For the compound `Cc1ccccc1CC(=O)NC(Cc1ccccc1)c1nc2ccccc2[nH]1` (stereo not drawn) [MCULE-2322094178], the remaining activity at 20 µM was found to be 83%.
In the case of `COc1ccc(-c2[nH]ncc2CNCc2ccccc2C)cc1` [MCULE-5715268546] it was 83%; in that of `O=C(NC(Cc1ccccc1)c1nc2ccccc2[nH]1)c1cccc(F)c1` (stereo not drawn) [MCULE-6499664919], 83%.

(Values after publication doi:10.1101/2021.03.27.437323v2 (biorxiv, 2021).)
